Measurements as given in ChEMBL document CHEMBL1150051, “Antiviral (RNA) activity of selected Amaryllidaceae isoquinoline constituents and synthesis of related substances” (J Nat Prod, 1992).
Converted amounts (≈) assume the structure as drawn.

What was measured:
[1] = test system: Japanese encephalitis virus; assay: Antiviral activity against Japanese encephalitis virus Nakayama infected in african green monkey Vero cells assessed as inhibition of virus-induced cytopathic effect by MTT assay; type: functional, organism-based
[2] = Therapeutic index, ratio of TC50 for african green monkey Vero cells to IC50 for Japanese encephalitis virus Nakayama; type: cell-based; conditions: read-out: TI
[3] = test system: Yellow fever virus; assay: Antiviral activity against Yellow fever virus Ashibi infected in african green monkey Vero cells assessed as inhibition of virus-induced cytopathic effect by MTT assay; type: functional, organism-based
[4] = Therapeutic index, ratio of TC50 for african green monkey Vero cells to IC50 for Yellow fever virus Ashibi; type: cell-based; conditions: read-out: TI
[5] = test system: dengue virus type 4; assay: Antiviral activity against Dengue virus type 4 infected in african green monkey Vero cells after 6 days by plaque reduction assay; type: functional, organism-based
[6] = Therapeutic index, ratio of TC50 for african green monkey Vero cells to IC50 for Dengue type 4 virus; type: cell-based; conditions: read-out: TI
[7] = test system: Punta Toro virus; assay: Antiviral activity against Punta Toro virus Adames infected in african green monkey Vero cells assessed as inhibition of virus-induced cytopathic effect by MTT assay; type: functional, organism-based
[8] = Therapeutic index, ratio of TC50 for african green monkey Vero cells to IC50 for Punta toro virus Adames; type: cell-based; conditions: read-out: TI
[9] = test system: Rift Valley fever virus; assay: Antiviral activity against Rift Valley fever virus infected in african green monkey Vero cells after 6 days by plaque reduction assay; type: functional, organism-based
[10] = Therapeutic index, ratio of TC50 for african green monkey Vero cells to IC50 for Rift valley fever virus; type: cell-based; conditions: read-out: TI
[11] = test system: Sandfly fever Sicilian virus; assay: Antiviral activity against Sandfly fever sicilian virus infected in african green monkey Vero cells assessed as inhibition of virus-induced cytopathic effect by MTT assay; type: functional, organism-based
[12] = Therapeutic index, ratio of TC50 for african green monkey Vero cells to IC50 for Sandfly fever sicilian virus; type: cell-based; conditions: read-out: TI
[13] = Japanese encephalitis virus, Nakayama, Vero, read-out: IC50
[14] = Yellow fever virus, Ashibi, Vero, read-out: IC50
[15] = Dengue virus, Vero, 144 h, read-out: IC50
[16] = Punta Toro virus, Adames, Vero, read-out: IC50
[17] = Rift Valley fever virus, Vero, 144 h, read-out: IC50

SMILES | IC50 [1, 13] | selectivity ratio [2] | IC50 [3, 14] | selectivity ratio [4] | IC50 [5, 15] | selectivity ratio [6] | IC50 [7, 16] | selectivity ratio [8] | IC50 [9, 17] | selectivity ratio [10] | IC50 ([11]; vero) | IC50 ([1]; vero) | IC50 ([3]; vero) | IC50 ([7]; vero) | IC50 ([9]; vero) | IC50 ([11]; sandfly fever Sicilian virus, Vero, read-out: IC50) | selectivity ratio [12] | inhibition (INH) [3] | inhibition (INH) [11] | IC50 ([5]; vero)
CC(=O)O[C@@H]1[C@@H](O)[C@@H](O)[C@@H]2NC(=O)c3cc4c(cc3[C@H]2[C@H]1O)OCO4 [LYCORICIDINE MONOACETATE] | 3.3 µg/mL | 3.3 | 4.8 µg/mL | 4.3 | 1.5 µg/mL | 33.3 | 4.7 µg/mL | 2.1 | 5.5 µg/mL | 4.4 | Not Active |  |  |  |  |  |  |  |  | 
O=C1N[C@H]2C=C[C@@H](O)[C@H](OC3CCCCO3)[C@@H]2c2cc3c(cc21)OCO3 (stereo not given in full) |  |  |  |  |  |  |  |  |  |  | Not Active | Not Active | Not Active | Not Active | Not Active |  |  |  |  | 
O=c1[nH]c2c(c3cc4c(cc13)OCO4)C[C@H](O)[C@@H](O)[C@H]2O |  |  | 5.7 µg/mL (≈ 19.6 µM) | 4.2 | 8.5 µg/mL (≈ 29.2 µM) | 5.9 | 7.2 µg/mL (≈ 24.7 µM) | 3.7 | 10 µg/mL (≈ 34.3 µM) | 5 | Not Active | Not Active |  |  |  |  |  |  |  | 
CC(=O)O[C@@H]1[C@@H](OC(C)=O)[C@H](OC(C)=O)[C@@H]2c3cc4c(cc3C(=O)N[C@H]2[C@@H]1OC(C)=O)OCO4 | 724 µg/mL (≈ 1520 µM) | 2.8 | 262 µg/mL (≈ 549 µM) | 3.8 |  |  |  |  |  |  | Not Active |  |  | Not Active | Not Active |  |  |  |  | 
CO[C@@H]1C=C[C@@]23c4cc5c(cc4C(O)O[C@H]2CN(C)[C@H]3C1)OCO5 (stereo not given in full) [PRETAZETTINE] | 0.6 µg/mL (≈ 1.81 µM) | 3.8 | 0.5 µg/mL (≈ 1.51 µM) | 5.6 |  |  | 0.61 µg/mL (≈ 1.84 µM) | 3.7 | 2.9 µg/mL (≈ 8.75 µM) | 3.5 |  |  |  |  |  | 0.82 µg/mL (≈ 2.47 µM) | 3 |  |  | 
CC(=O)Oc1c2c(cc3c1C(=O)N[C@H]1[C@H](OC(C)=O)[C@H](OC(C)=O)[C@@H](OC(C)=O)C[C@@H]31)OCO2 | 8.1 µg/mL (≈ 17 µM) | 3.5 |  |  |  |  | 12 µg/mL (≈ 25.1 µM) | 6.4 |  |  |  |  |  |  |  |  |  | 25% | 25% | 
O=C1N[C@@H]2C(=C[C@H](O)[C@@H](O)[C@H]2O)c2cc3c(c(O)c21)OCO3 [NARCICLASINE] | 0.008 µg/mL (≈ 0.026 µM) | 4.08 | 0.006 µg/mL (≈ 0.0195 µM) | 6.1 | 0.015 µg/mL (≈ 0.0488 µM) | 4 | 0.0074 µg/mL (≈ 0.0241 µM) | 3.9 |  |  | Not Active |  |  |  | Not Active |  |  |  |  | 
O=C1N[C@H]2[C@H](O)[C@H](O)[C@@H](O)C[C@@H]2c2cc3c(c(O)c21)OCO3 | 0.004 µg/mL (≈ 0.0129 µM) | 5.6 | < 0.003 µg/mL | > 8.5 | 0.015 µg/mL (≈ 0.0485 µM) | 4.2 | 0.008 µg/mL (≈ 0.0259 µM) | 3.3 |  |  | Not Active |  |  |  |  |  |  |  |  | 
CC(=O)O[C@@H]1[C@H](OC(C)=O)[C@@H](OC(C)=O)C=C2c3cc4c(cc3C(=O)N[C@H]21)OCO4 [LYCORICIDINE TRIACETATE] |  |  |  |  |  |  |  |  |  |  | Not Active | Not Active | Not Active | Not Active | Not Active |  |  |  |  | Not Active
O=C1N[C@H]2[C@H](O)[C@H](O)[C@@H](O)C[C@@H]2c2cc3c(cc21)OCO3 | 0.039 µg/mL (≈ 0.133 µM) | 5.6 | 0.037 µg/mL (≈ 0.126 µM) | 7.5 | 0.5 µg/mL (≈ 1.7 µM) | 5 | 0.057 µg/mL (≈ 0.194 µM) | 5.9 | 0.25 µg/mL (≈ 0.852 µM) | 2 | Not Active |  |  |  |  |  |  |  |  | 
